Experimental data as given in EP1043331A1, “BONE-RESORPTIVE CYTOKINE INHIBITOR CONTAINING DIENOGEST AS THE ACTIVE INGREDIENT” (MOCHIDA PHARMACEUTICAL CO., LTD., priority 1997, dated 1999).
Marks after values point to notes of the source that are not given here.

Assays:
Assay type in all cases: cell-based, mouse
[1] = test system: IL-6; assay: IL-6 release from murine osteoblast (culture supernatant cytokine assay); conditions: 24 hours culture
Experimental: Under anesthesia with pentobarbital sodium (25 mg/kg, intraperitoneal administration), postcava was cut to bleed and kill the animal to death. Then, bilateral femoral bones were resected. This bone was cut with a pair of bone scissors, to remove the bone marrow with a micro-loop. The inner face of the bone was rubbed off with a sharp blade. The resulting matter was agitated in a 10 % collagenase solution (Nitta gelatin) at 37 °C for 20 minutes, and to the resulting mixture was added a culture medium (an MEM culture medium supplemented with 10 % charcoal-treated bovine fetal serum; manufactured by Nissui Pharmaceutical, Co. Ltd.) prior to centrifugation (300×g, 5 minutes and 20 °C). The resulting cells were dispersed in a fresh culture medium and then inoculated on a plastic culture dish (diameter of 35 mm, Primaria (Falcon)). […] Osteoblast was identified by using alkali phosphatase staining as an osteoblast marker. For recovering osteoblast from an animal after ovariectomy, ovariectomy was carried out at age 11 weeks, and the animal was fed for the following 4 weeks, prior to the same treatment.
Dienogest as a test substance was dissolved and diluted in dimethylsulfoxide (DMSO, manufactured by Wako Pure Chemical Industries, Ltd.) for use. As a control substance, furthermore, MPA and danazol were used after they were dissolved and diluted in DMSO. DMSO was used as a solvent control.
The final concentrations of the drug were 10^-11, 10^-10 and 10^-9 M. For experiments, furthermore, three dishes per each group were used.
Using SMRART ™ (Pharmacia Biotech, Uppsala, Sweden), the supernatant was concentrated by about 10 fold, after the termination of culturing. The level of cytokine in the sample was assayed by using assay kits of murine IL-1β, IL-6 and TNF-α (Cytoscreen™, BioSource International, Camarillo, Calif. CA, USA) and europium-labeled streptoavidin (Pharmacia Biotech).

[2] = test system: TNF-α; assay: TNF-α release from murine osteoblast (culture supernatant cytokine assay); conditions: 24 hours culture
Experimental: According to the method by Johansen, et al. (Journal Bone and Mineral Research, Vol.7, pp.501-509, 1992), osteoblast was collected from the femoral bones of a female SLC : ICR mouse of age 15 weeks. Under anesthesia with pentobarbital sodium (25 mg/kg, intraperitoneal administration), postcava was cut to bleed and kill the animal to death. Then, bilateral femoral bones were resected. This bone was cut with a pair of bone scissors, to remove the bone marrow with a micro-loop. The inner face of the bone was rubbed off with a sharp blade. The resulting matter was agitated in a 10 % collagenase solution (Nitta gelatin) at 37 °C for 20 minutes, and to the resulting mixture was added a culture medium (an MEM culture medium supplemented with 10 % charcoal-treated bovine fetal serum; manufactured by Nissui Pharmaceutical, Co. Ltd.) prior to centrifugation (300×g, 5 minutes and 20 °C). The resulting cells were dispersed in a fresh culture medium and then inoculated on a plastic culture dish (diameter of 35 mm, Primaria (Falcon)). At 37 °C in 5 % CO2/95% air, the cells were cultured for 24 hours, and the attached cells were recovered in a 0.25 % trypsin solution to prepare a cell suspension of 1×10^4 cells/ml. Osteoblast was identified by using alkali phosphatase staining as an osteoblast marker. For recovering osteoblast from an animal after ovariectomy, ovariectomy was carried out at age 11 weeks, and the animal was fed for the following 4 weeks, prior to the same treatment.
1×10^4 cells/ml osteoblast suspension (100 µl), a culture medium (890 µl) and a drug solution (10 µl) were added into each well of a plastic 24-well culture plate (Falcon), for culturing at 37 °C in 5 % CO2/95 % air for 24 hours, and then, the resulting culture was centrifuged (300 ×g, 5 minutes, 20°C) to recover the supernatant, which was defined as a cytokine assay sample. The final concentrations of the drug were 10^-11, 10^-10 and 10^-9 M. For experiments, furthermore, three dishes per each group were used.

[3] = test system: murine osteoclast; assay: Frequency of occurrence of apoptosis in murine osteoclast; conditions: 7 days, one hundred cells with two or more nuclei observed, control 4.0
Experimental: By a method according to the report by Takahashi et al. (Endocrinology, Vol.122, pp.1373-1382, 1988), osteoclast was prepared. More specifically, a female SLC:ICR mouse of age 7 weeks was bled and killed to death, under anesthesia with pentobarbital sodium (25 mg/kg, intraperitoneal administration), and from the mouse; her femoral bone was resected. Both the ends were cut, to rinse off the […] into α-MEM (Gibco) (1 ml). […] 0.5 ml of the cell suspension was inoculated in a 24-well microtiter plate. To the wells was added 100 ng/ml parathyroid hormone (Sigma Chemical Co.) for culturing in 5 % CO2/95 % air at 37 °C for 2 days. […] Herein, three plates were used per one concentration of each drug. […] After rinsing in PBS, the apoptosis cells were detected by using an ApopTagPlus Insitu Apoptosis Detection kit peroxidase (Oncor, Gaithersburg, MD, USA) and a TSA-direct kit (GreenFISH, NEN Life Science Products, Boston, MA). Simultaneously, the smear sample was stained with a 20 µg/ml propidium iodide (Sigma Chemical Co.) solution containing 50 U/ml RNase, at room temperature for 15 minutes, to stain the nucleus. One hundred cells with two or more nuclei were observed under a cofocal laser scanning type fluorescence microscope (MRC-1000, BioRad), to determine the number of apoptosis-positive cells developed: The results are shown in Table 5.

[4] = test system: cAMP; assay: cAMP content in murine osteoblast (time-resolved fluorometry); conditions: Fig.1
Experimental: According to the method by Johansen, et al. (Journal Bone and Mineral Research, Vol.7, pp.501-509, 1992), osteoblast was collected from the femoral bones of a female SLC : ICR mouse of age 15 weeks. Under anesthesia with pentobarbital sodium (25 mg/kg, intraperitoneal administration), postcava was cut to bleed and kill the animal to death. Then, bilateral femoral bones were resected. This bone was cut with a pair of bone scissors, to remove the bone marrow with a micro-loop. The inner face of the bone was rubbed off with a sharp blade. The resulting matter was agitated in a 10 % collagenase solution (Nitta gelatin) at 37 °C for 20 minutes, and to the resulting mixture was added a culture medium (an MEM culture medium supplemented with 10 % charcoal-treated bovine fetal serum; manufactured by Nissui Pharmaceutical, Co. Ltd.) prior to centrifugation (300×g, 5 minutes and 20 °C). The resulting cells were dispersed in a fresh culture medium and then inoculated on a plastic culture dish (diameter of 35 mm, Primaria (Falcon)). […] Osteoblast was identified by using alkali phosphatase staining as an osteoblast marker. For recovering osteoblast from an animal after ovariectomy, ovariectomy was carried out at age 11 weeks, and the animal was fed for the following 4 weeks, prior to the same treatment. 1×10^4 cells/ml osteoblast suspension (100 µl), a culture medium (890 µl) and a drug solution (10 µl) were added into each well of a plastic 24-well culture plate (Falcon), for culturing at 37 °C in 5 % CO2/95 % air for 24 hours, and then, the resulting culture was centrifuged (300 ×g, 5 minutes, 20°C) to recover the supernatant, which was defined as a cytokine assay sample. […] For experiments, furthermore, three dishes per each group were used. […] After rinsing with a DELFIA rinse solution, an enhancer reagent (100 µl) was added, for agitation at room temperature for 5 minutes, to determine the fluorescence intensity with a time-resolved fluorometer. Based on a preliminarily prepared standard curve, cAMP content was calculated.

[5] = osteoblast of non-treated mouse, 10^-9 M, control 39.9
[6] = osteoblast of non-treated mouse, 10^-10 M, control 39.9
[7] = osteoblast of non-treated mouse, 10^-11 M, control 39.9
[8] = osteoblast of ovariectomized mouse, 10^-9 M, control 109.0
[9] = osteoblast of ovariectomized mouse, 10^-10 M, control 109.0
[10] = osteoblast of ovariectomized mouse, 10^-11 M, control 109.0
[11] = osteoblast of non-treated mouse, 10^-9 M, control 23.5
[12] = osteoblast of non-treated mouse, 10^-10 M, control 23.5
[13] = osteoblast of non-treated mouse, 10^-11 M, control 23.5
[14] = osteoblast of ovariectomized mouse, 10^-9 M, control 45.0
[15] = osteoblast of ovariectomized mouse, 10^-10 M, control 45.0
[16] = osteoblast of ovariectomized mouse, 10^-11 M, control 45.0
[17] = doses of 10^-11, 10^-10 and 10^-9 M

SMILES | IL-6 [1, 5] | IL-6 [1, 6] [pg/mL] | IL-6 [1, 7] [pg/mL] | IL-6 [1, 8] | IL-6 [1, 9] | IL-6 [1, 10] [pg/mL] | TNF-α [2, 11] | TNF-α [2, 12] [pg/mL] | TNF-α [2, 13] [pg/mL] | TNF-α [2, 14] | TNF-α [2, 15] | TNF-α [2, 16] [pg/mL] | frequency of apoptosis occurrence in murine osteoclast (number of apoptosis-positive cells) ([3]; 10^-9 M) | frequency of apoptosis occurrence in murine osteoclast (number of apoptosis-positive cells) ([3]; 10^-10 M) | frequency of apoptosis occurrence in murine osteoclast (number of apoptosis-positive cells) ([3]; 10^-11 M) | cAMP content in murine osteoblast [4, 17] | cAMP content in murine osteoblast ([4]; at a concentration of 10^-9 M or more)
C#C[C@]1(O)CC[C@H]2[C@@H]3CCC4=Cc5oncc5C[C@]4(C)[C@H]3CC[C@@]21C [Danazol, danazol] | 42.0** pg/ml | 37.7 | 38.9 | 124.0** pg/ml | 109.4 pg/mL | 111.3 | 26.1** pg/ml | 24.3 | 24.0 | 47.5** pg/ml | 45.3 pg/mL | 45.3 | 3.3 | 3.7 | 4.0 | did not affect | –
C[C@]12CCC3=C4CCC(=O)C=C4CC[C@H]3[C@@H]1CC[C@@]2(O)CC#N [Dienogest, 17 α-cyanomethyl-17β-hydroxy-estra-4,9(10)-dien-3-one] | 32.3** pg/ml | 35.5 | 39.3 | 40.1** pg/ml | 47.7** pg/ml | 94.2 | 14.8** pg/ml | 24.4 | 24.7 | 22.3** pg/ml | 29.8** pg/ml | 44.4 | 16.3** | 5.0 | 3.7 | – | significantly increased
CC(=O)O[C@]1(C(C)=O)CC[C@H]2[C@@H]3C[C@H](C)C4=CC(=O)CC[C@]4(C)[C@H]3CC[C@@]21C [MPA, medroxyprogesterone acetate] | 45.1** pg/ml | 37.6 | 38.7 | 122.5** pg/ml | 109.3 pg/mL | 111.4 | 31.4** pg/ml | 25.3 | 25.5 | 47.6* pg/ml | 46.1 pg/mL | 44.6 | 5.0 | 3.7 | 4.0 | did not affect | –
